“Also recorded” adds a separate entry of the source. Each block holds one compound with its values, some of them ahead of it.
Key:
[1] = system: HDM-induced asthmatic BALB/c mice; test: House dust mite allergic asthma mouse model, BAL fluid total and differential cell counts; format: in vivo; details: day 7-11, n = 6; for BAL fluid airway infiltration of all inflammatory leukocytes: 1 mg/kg i.p., positive control
Procedure: (§1) BALB/c mice of 6–8 weeks of age were housed in the animal experimentation unit, Faculty of Medicine and Health Sciences, Universiti Putra Malaysia (UPM). Mice were kept in individually vented cages (1820 cm^3, not more than 6 mice per cage) with a bed of poplar shaving and free access to clean water and food. Mice were grouped into 8 groups of 6 mice per group – Group 1: Normal control, Group 2: HDM, Group 3: Vehicle (6% DMSO), Group 4: SRS143 (0.3 mg/kg), Group 5: SRS143 (1 mg/kg), Group 6: SRS143 (3 mg/kg), Group 7: dexamethasone (1 mg/kg), Group 8: andrographolide (1 mg/kg). Throughout the study, both experimental and control mice were kept under appropriate conditions (22 ± 2 °C temperature, and 55 ± 10% relative humidity). The mice were maintained under a 12-h light-darkness cycle.
Allergic asthma was induced using house dust mite (Dermatophagoides pteronyssinus, Lot Number: 253983, Greer Laboratories, Lenoir, USA). The HDM was dissolved and prepared to a concentration of 5000 µg/mL in PBS, and then it was aliquoted and frozen (−20 °C) for further use. A 14-day HDM model was used to induce asthma in Balb/c mice (Lim et al. [2016]). The animals were sub-anesthetized using a cocktail of ketamine (50 mg/kg) and xylazine (3.3 mg/kg) for the intranasal HDM sensitization and challenged protocol. Briefly, the induction involved initial intranasal administration of 100 μg HDM extract (10 μL per nostril) on day 0, and subsequent administration of 10 μg of HDM (10 μL per nostril) on day 7—11. Mice were treated with SRS143 at doses of 0.3, 1, or 3 mg/kg, or with dexamethasone (1 mg/kg) or andrographolide (1 mg/kg). All treatments were administered at a constant volume of 10 mL/kg. Bronchoalveolar lavage (BAL) fluid collection was conducted on day 14.
Fig. 3 HDM-asthma induction protocol. Animals were intranasally (i.n.) sensitized using 100 μg of house dust mite (HDM) on day 0, this was followed by daily HDM intranasal challenge (10 μg) on day 7 −11. […]
BAL fluid total and differential cell counts were determined as described (Matsuda et al. [1994]).

[2] = system: HDM-induced asthmatic BALB/c mice; test: House dust mite allergic asthma mouse model, lung histology (H&E, PAS); format: in vivo
Procedure: as §1
(§2) Allergic asthma was induced using house dust mite (Dermatophagoides pteronyssinus, Lot Number: 253983, Greer Laboratories, Lenoir, USA). The HDM was dissolved and prepared to a concentration of 5000 µg/mL in PBS, and then it was aliquoted and frozen (−20 °C) for further use. […]
Isolated lungs were fixed in 10% neutral formalin and processed. […] (5 µm) were stained with H&E for inflammatory cell infiltration and Periodic Acid Schiff […] stain (PAS) for mucus production. Quantitative analysis under a light microscope was then performed. […]

RBL-2H3 cells [3] = test: β-hexosaminidase release assay, calcium ionophore A23187 stimulation; format: cell-based
Procedure: (§3) The inhibitory activity of SRS143 and quercetin against the release of β-hexosaminidase from RBL-2H3 cells was evaluated according to the method reported previously (Lin et al. [2020]). Briefly, the cells were cultured in a 24-well cell culture plate (9 × 10^5/well, Becton–Dickinson Co., Franklin Lakes, NJ) with concentration ([…]) of mouse monoclonal anti-dinitrophenyl (DNP) IgE. After washing with PBS, SRS143 at various concentrations (0, 0.1, 1 and 10 μM)) or quercetin (30 μM) was added. After 60 min of incubation, DNP-labeled bovine serum albumin (DNP-labeled BSA, 50 ng/ml final concentration) was added, followed by 45 min of incubation. The supernatant (50 μl) was mixed with 100 μl of a 0.1 M citrate buffer (pH 4.5) containing 1 mM […] and the mixture was incubated in a 96-well plate at 37 °C for 60 min. For the calcium ionophore stimulation method, CaI A23187 was added at 5 µM to induce degranulation. Each well was replaced with 0.4 mL of MEM media and 100 µL of MTT solution to evaluate cell viability using MTT assay. Supernatants from CaI A23187-induced degranulated cells were collected, centrifuged, and reacted with PNAG in citrate buffer at 37℃ for 1 h. The reaction was stopped, and absorbance at 405 nm was measured using a microplate reader (Versamax).to assess beta-hexosaminidase activity, indicating enzyme subproduct levels. The results are expressed as percentage release of β-hexosaminidase activity amount by antigen (DNP-labeled BSA) alone.
(§4) Mast cell degranulation is the key process in allergic asthma. To induce mast cell degranulation process in RBL-2H3 cells, the cells were sensitized and challenged with DNP-labelled specific antigen IgE. Alternatively, the mast cells were induced with calcium ionophore A23187 to trigger direct degranulation independent of activation of IgE. The release was assessed with β-hexosaminidase assay whereby the amount β-hexosaminidase enzyme released correlates to histamine release by RBL-2H3 cells. In the preliminary screening, single low dose of 10 µM of AGP and its derivatives were applied to the calcium ionophore activated cells for a short duration of 1 h. Quercetin as positive control was also applied at a higher dose of 50 µM. For cell viability assay, the cells were washed and replenished with fresh medium supplemented with 15% FBS after 1 h of treatment. The cell viability was measured at 24 h. […] Given close to eightfold improved potency in inhibition of mast degranulation (Fig. 4A, B and C). We further measured the efficacy of SRS143 in a dose response study involving both efficacy and toxicity.

[4] = system: HDM-induced asthmatic BALB/c mice; test: House dust mite allergic asthma mouse model, airway hyperresponsiveness to methacholine; format: in vivo; details: methacholine 2-32 mg/ml, n = 6
Procedure: as §1
as §2, with “use. A 14-day HDM model was used to induce asthma in Balb/c mice (Lim et al. [2016]). The animals were sub-anesthetized using a cocktail of ketamine (50 mg/kg) and xylazine (3.3 mg/kg) for the intranasal HDM sensitization and challenged protocol.” for “use.”

Akt phosphorylation = test: Immunoblotting of Akt phosphorylation in IgE-FcεRI activated mast cells; format: cell-based; details: IgE-FcεRI activated RBL-2H3 cells, 0.1, 1 and 10 µM, n = 3
Procedure: Nuclear proteins of RBL-2H3 cells (10 µg per lane) were separated by 10% SDS-PAGE and immunoblots were developed as described (Matsuda et al. [1994]). Immunoblots were probed with anti-AKT and anti-β-actin antibodies (all from Cell Signalling Technology, Beverly, MA).

RBL-2H3 cells [5] = test: Cell viability (MTT) assay; format: cell-based
Procedure: (§5) RBL-2H3 cells were maintained in Minimum Essential Media (MEM, ThermoFischer, Grand Island, NY), supplemented with 15% heat-inactivated FBS, 100 U/mL of penicillin and 100 µg/mL of streptomycin. The cytotoxicity effect of the SRS143 was carried out using the rapid colorimetric assay that measures the activity of mitochondrial dehydrogenase in living cells, which convert the pale yellow soluble tetrazolium salt MTT into a insoluble purple end product formazan.
as §3, §4

[6] = Cell viability (MTT) assay; format: cell-based; details: rat, RBL-2H3 cells, 1 h treatment, washed, viability measured at 24 h
Procedure: as §5, §3, §4

RBL-2H3 cells [7] = test: β-hexosaminidase release assay, IgE-FcεRI (DNP-IgE/DNP-BSA) stimulation; format: cell-based
Procedure: The inhibitory activity of SRS143 and quercetin against the release of β-hexosaminidase from RBL-2H3 cells was evaluated according to the method reported previously (Lin et al. [2020]). Briefly, the cells were cultured in a 24-well cell culture plate (9 × 10^5/well, Becton–Dickinson Co., Franklin Lakes, NJ) with concentration ([…]) of mouse monoclonal anti-dinitrophenyl (DNP) IgE. After washing with PBS, SRS143 at various concentrations (0, 0.1, 1 and 10 μM)) or quercetin (30 μM) was added. After 60 min of incubation, DNP-labeled bovine serum albumin (DNP-labeled BSA, 50 ng/ml final concentration) was added, followed by 45 min of incubation. […] The reaction was stopped, and absorbance at 405 nm was measured using a microplate reader (Versamax).to assess beta-hexosaminidase activity, indicating enzyme subproduct levels. The results are expressed as percentage release of β-hexosaminidase activity amount by antigen (DNP-labeled BSA) alone.
Mast cell degranulation is the key process in allergic asthma. […] The release was assessed with β-hexosaminidase assay whereby the amount β-hexosaminidase enzyme released correlates to histamine release by RBL-2H3 cells. […] The cell viability was measured at 24 h. […] We further measured the efficacy of SRS143 in a dose response study involving both efficacy and toxicity.

[8] = Rattus norvegicus, 10 µM, 1 h, calcium ionophore A23187 activated RBL-2H3 cells, read-out: Inhibition of β-Hexosaminidase Enzyme Release (%)

- IC50 (RBL-2H3 cells [3]; Rattus norvegicus, RBL-2H3, calcium ionophore A23187 stimulation, 1 h (Fig. 4B), read-out: IC50, inhibition of β-hexosaminidase release): 6.5 µM
- IC50 (RBL-2H3 cells [7]; Rattus norvegicus, RBL-2H3, IgE-FceRI stimulation, 1 h (Fig. 4C), 50% mark on concentration axis, read-out: IC50, inhibition of β-hexosaminidase release): 6.5 µM
Structure (SMILES): C=C1CCC2C3(C)COC(c4ccccc4)OC3CCC2(C)C1C/C=C1/C(=O)OCC1OC(C)=O (centres unmarked) [SRS143, 3,19-Benzylidene-14-acetylandrographolide]
- BAL fluid total cells, macrophage, neutrophil, eosinophil and lymphocyte infiltration ([1]; 0.3, 1, 3 mg/kg i.p. 2 h before HDM challenge, vs HDM group): significant reduction; also recorded: dose-dependently reduced
- Peribronchial and perivascular inflammatory cellular infiltration in lung sections (H&E) ([2]; 0.3, 1, 3 mg/kg i.p., day 7-11): dose-dependently decreased
- PAS-positive cells score (mucus, goblet metaplasia) ([2]; SRS143 i.p., HDM sensitized and challenged mice): between mild to no observable goblet metaplasia
- Improved potency in inhibition of mast degranulation (RBL-2H3 cells [3]; 10 µM screening, the comparator is not given, presumably AGP): eightfold
- inhibition at 30 µM (RBL-2H3 cells [3]; Rattus norvegicus, RBL-2H3, 30 µM, 1 h, dose-response study (Fig. 4B), read-out: Inhibition of enzyme release): ~97%
- inhibition at 10 µM (RBL-2H3 cells [3]; [8]): 85.2 ± 3.1%
- Airway resistance (RI) in response to methacholine ([4]; 1 and 3 mg/kg i.p.): remarkable decrease
- Dynamic compliance (Cdyn) in response to methacholine ([4]; SRS143 i.p.): no significant changes
- Levels of phosphorylated-Akt (Akt phosphorylation): decrease significantly at the highest dose of 10 μM
- Cytotoxicity on RBL-2H3 cells (RBL-2H3 cells [5]; 1 h, 24 h, and 24 h after washing at 1 h): only toxic if applied at the highest concentration of 100 µM
- viability at 1 h, 10 µM [6]: 107%

Structure (SMILES): C=C1CC[C@@H]2[C@](C)(CO)[C@H](O)CC[C@@]2(C)[C@@H]1C/C=C1/C(=O)OC[C@H]1O [AGP, andrographolide]
- BAL fluid airway infiltration of all inflammatory leukocytes [1]: showed inhibition
- Inhibition of β-Hexosaminidase Enzyme Release (%) (RBL-2H3 cells [3]; 10 µM, 1 h, calcium ionophore A23187 activated RBL-2H3 cells): low percentage inhibition level
- inhibition at 10 µM (RBL-2H3 cells [3]; [8]): 11.1 ± 5.7%
- In vitro antihistamine activity (RBL-2H3 cells [3]; calcium ionophore activated RBL-2h3 cells): did not show any in vitro antihistamine activity
- viability at 1 h, 10 µM [6]: 81.3%
- In vitro antihistamine activity (RBL-2H3 cells [7]; DNP-IgE activated RBL-2h3 cells): did not show any in vitro antihistamine activity

Structure (SMILES): C=C1CCC2C(C)(CO)C(O)CCC2(C)C1C=CC1=CCOC1=O (centres unmarked) [DDAG, 14-deoxy-11,12-didehydroandrographolide]
- Viability of RBL-2H3 Cells (%) (RBL-2H3 cells [5]; 10 µM, 1 h treatment, washed, viability measured at 24 h): 99.6%

Structure (SMILES): C[C@@H]1C[C@H]2[C@@H]3CCC4=CC(=O)C=C[C@]4(C)[C@@]3(F)[C@@H](O)C[C@]2(C)[C@@]1(O)C(=O)CO [Dexamethasone, dexamethasone, reference compound]
- BAL fluid airway infiltration of all inflammatory leukocytes [1]: showed inhibition

Structure (SMILES): O=c1c(O)c(-c2ccc(O)c(O)c2)oc2cc(O)cc(O)c12 [Quercetin, quercetin, reference compound]
- inhibition at 50 µM (RBL-2H3 cells [3]; Rattus norvegicus, 50 µM, 1 h, calcium ionophore A23187 activated RBL-2H3 cells, read-out: Inhibition of β-Hexosaminidase Enzyme Release (%)): 78.8 ± 8.5%
- viability at 1 h, 50 µM ([6]; 50 µM): 106%

Source: article PMC13046583, “SRS143 a semi-synthetic analogue of andrographolide against house dust mite induced allergic asthma” (Naunyn-Schmiedeberg's Archives of Pharmacology, 2025)
